Laboratory results: PMC12914960, “Repurposing a detrimental antibody epitope as targeted therapeutics for sepsis and rheumatoid arthritis” (Military Medical Research, 2026)
“And” between values parts separate entries of the source, which are not always exact repeats. Identical values can stand only once. Where a SMILES comes first, the peptide text is derived from it.

Experiments:
[1] = test system: CAIA-induced pain sensitivity in BALB/c mice; assay: Mechanical allodynia, Von Frey filaments, in CAIA mice; format: in vivo, mouse; design: key to CAIA-induced pain sensitivity (Von Frey score) / CAIA-induced pain response (Vor Frey score): 50% paw withdrawal threshold, force in g; conditions: for CAIA-induced pain response (Vor Frey score): female, effect of mAb2, P2-1
Procedure: Mechanical allodynia was assessed using Von Frey filaments (Stoelting Co., Wood Dale, IL, USA) applied to the plantar surface of the hind paws as previously described. The mice (n = 6–10) were habituated to individual transparent enclosures on an elevated wire mesh platform. Calibrated Von Frey filaments (0.008–2.000 g) were applied for 2–3 s or until a withdrawal response occurred. The “up-down” method determines the 50% paw withdrawal threshold, defined as the force required to elicit a withdrawal response in 50% of applications.

[2] = test system: CLP-induced serum cytokines and chemokines; assay: Serum cytokines/chemokines after CLP, murine cytokine antibody arrays; format: in vivo, mouse; design: BLC / G-CSF / GM-CSF / IL-6 / KC / MCP-1 / MIP-2 / MIP-1 gama / PF-4 / sTNF-RI: unit not given here; conditions: for BLC / G-CSF / GM-CSF / IL-6 / KC / MCP-1 / MIP-1 gama / MIP-2 / PF-4 / sTNF-RI: serum 24 h, individual values
Procedure: Experimental sepsis was induced in BALB/c mice via CLP as previously described. […] The animals were randomly assigned to the control vehicle (n = 10 or n = 20) or experimental groups (n = 10 or n = 20). P2 (5.0 mg/kg), P2-1 (0.1 mg/kg or 1.0 mg/kg), or tetranectin N-terminal deletion mutant (ΔTN) (1.0 mg/kg) were administered intraperitoneally (i.p.) at the indicated time points, and survival rates were monitored. To elucidate P2-1’s protective mechanisms, a separate group of BALB/c mice (n = 4) underwent CLP and received P2-1 (1.0 mg/kg) at 2 h and 20 h post-CLP. At 24 h post-CLP, the animals were euthanized, blood was collected, and serum cytokines and chemokines were measured via murine cytokine antibody arrays as previously described. More details are presented in Additional file 1: Methods.
The levels of cytokines and chemokines in mouse serum and joint tissue lysates, or human PBMC culture supernatants, were determined via murine or human cytokine antibody arrays (e.g., Cat. #AAM-CYM-3–8 or Cat. #AAH-CYT-3–8, RayBiotech Inc., Norcross, GA, USA) as previously described. For the sepsis model, blood samples were collected from the mice (n = 4) at 24 h post-CLP. For the CAIA model, soft tissues from the hindpaw and ankle joints were carefully harvested from normal (n = 2) and CAIA (n = 4) mice using a previously established protocol. Briefly, 0.5 g of fresh soft tissue was cut into 3 mm pieces and mixed with 400 µl of a hypertonic solution (500 ml of PBS with 4.5 g of NaCl and 2 × protease inhibitor cocktail) in a 10 ml syringe. Mechanical extrusion, involving 30 rapid back-and-forth movements of the plunger, was then performed. The expelled extracellular fluid was collected, immediately aliquoted, and stored at −20 °C until analysis. Cell-conditioned medium was collected from PBMC cultures after 16 h of stimulation. Arrays were performed according to the manufacturer’s protocol, followed by chemiluminescent detection and densitometric quantification as previously described.
BALB/c mice subjected to CLP-induced sepsis received P2-1 (0.1 or 1.0 mg/kg) intraperitoneally twice, at 2 h and 20 h post-CLP. At 24 h post-CLP, the animals were sacrificed, and blood was harvested for cytokine and chemokine measurements via cytokine antibody arrays. ^*P < 0.05 vs. the negative control (“- CLP”); ^#P < 0.05 vs. the positive control (“ + CLP”) group, non-parametric Kruskal-Wallis ANOVA test. CLP cecal ligation and puncture, BLC B-lymphocyte chemoattractant, CCL C–C motif chemokine ligand, CXCL C-X-C motif chemokine ligand, IL interleukin, G-CSF granulocyte colony-stimulating factor, KC keratinocyte-derived chemokine, GRO growth-regulated oncogene, MIP macrophage inflammatory protein, PF platelet factor, sTNFR soluble tumor necrosis factor receptor

[3] = CLP + P2-1 0.1 mg/kg, 0.1 mg/kg

CCCC[C@H](NC(=O)[C@H](Cc1c[nH]cn1)NC(=O)[C@@H](NC(=O)[C@H](CCCCN)NC(=O)[C@@H](N)[C@@H](C)O)C(C)C)C(=O)N[C@@H](CCCCN)C(=O)N[C@@H](CO)C(=O)N[C@@H](Cc1ccccc1)C(=O)N[C@@H](CC(C)C)C(=O)N[C@@H](C)C(=O)N[C@@H](Cc1ccccc1)C(=O)N[C@@H](CCC(N)=O)C(=O)N[C@H](C(=O)N[C@@H](CCCCN)C(=O)N[C@H](C(=O)O)[C@@H](C)O)[C@@H](C)O [P2-1] (HELM PEPTIDE1{T.K.V.H.[Nle].K.S.F.L.A.F.Q.T.K.T}$$$$V2.0; N-terminus and C-terminus assumed)
CAIA-induced pain sensitivity (Von Frey score) ([1]; CAIA + P2-1 (Day 10), individual values, P = 0.04443 vs. CAIA + Vehicle): 0.14 and 0.17 and 1.23 and 0.05 and 0.75 and 0.26 and 0.09 and 0.57 and 0.18 and 0.16 and 0.44 and 0.78 | pain sensitivity, in words ([1]; P2-1 prophylactic): significantly reduced CAIA-induced pain sensitivity through partial restoration of mechanical withdrawal thresholds | pain sensitivity, in words ([1]; P2-1 therapeutic, Von Frey): significantly reduced CAIA-induced pain sensitivity by partially restoring withdrawal thresholds to mechanical stimuli | CAIA-induced pain response (Vor Frey score) ([1]; Day 6, individual values): 0.37 and 0.11 and 0.21 and 0.16 and 1.19 | CAIA-induced pain response (Vor Frey score) ([1]; Day 10, individual values, P = 0.04443 vs. CAIA + Vehicle): 0.57 and 0.31 and 0.96 and 0.32 and 0.44 | BLC ([2]; CLP + P2-1 0.1 mg/kg i.p. 2 h and 20 h post-CLP, 0.1 mg/kg): 257.4 and 202.1 and 204.2 and 224.3 | G-CSF [2, 3]: 161.4 and 173.4 and 290.4 and 305.7 | GM-CSF [2, 3]: 23.2 and 56 and 52.8 and 13.6 | IL-6 [2, 3]: 59.36 and 56.19 and 57.95 and 55.32 | KC [2, 3]: 128.7 and 116.3 and 31.9 and 105.9 | MCP-1 [2, 3]: 25.4 and 25.6 and 31.2 and 21.8 | MIP-1 gama [2, 3]: 280.3 and 263.7 and 278.8 and 275.6 | MIP-2 [2, 3]: 203.2 and 193.1 and 174.2 and 159.2 | PF-4 [2, 3]: 302.3 and 268.3 and 285.4 and 298.4 | sTNF-RI [2, 3]: 143.4 and 116.1 and 179.9 and 149.3 | BLC ([2]; CLP + P2-1 1.0 mg/kg i.p. 2 h and 20 h post-CLP, 1 mg/kg): 42.8 and 33.1 and 30.9 and 35.4 | G-CSF ([2]; CLP + P2-1 1.0 mg/kg, 1 mg/kg): 111.9 and 128.7 and 120.4 and 100.4 | GM-CSF ([2]; CLP + P2-1 1.0 mg/kg, 1 mg/kg): 0.79 and 1.5 and 1.2 and 3.4 | IL-6 ([2]; CLP + P2-1 1.0 mg/kg, 1 mg/kg): 16.8 and 16.2 and 14.3 and 20.4 | KC ([2]; CLP + P2-1 1.0 mg/kg, 1 mg/kg): 151.9 and 155 and 10.5 and 15.5 | MCP-1 ([2]; CLP + P2-1 1.0 mg/kg, 1 mg/kg): 6.8 and 7.9 and 7.4 and 5.2 | MIP-1 gama ([2]; CLP + P2-1 1.0 mg/kg, 1 mg/kg): 128.6 and 137.5 and 54.5 and 68.8 | MIP-2 ([2]; CLP + P2-1 1.0 mg/kg, 1 mg/kg): 172.1 and 177.3 and 14.9 and 12.4 | PF-4 ([2]; CLP + P2-1 1.0 mg/kg, 1 mg/kg): 109.2 and 118.3 and 114.4 and 64.9 | sTNF-RI ([2]; CLP + P2-1 1.0 mg/kg, 1 mg/kg): 21.5 and 32.7 and 198.2 and 143.4 | sepsis-induced systemic cytokines/chemokines, in words ([2]; P2-1 i.p. at 2 h and 20 h post-CLP, blood at 24 h, BLC, G-CSF, IL-6, KC, MIP-1γ, MIP-2, PF-4, sTNFRI): significantly reduced sepsis-induced systemic accumulation
